Experimental data from patent publication US7709444B2, “Echinocandin pharmaceutical formulations containing micelle-forming surfactants” (Pfizer Inc., priority 1999, dated 2010).
*1 amine or outer side, *2 acyl side, *3 side chain or, on linkers, in order; H or OH if unused. Where a SMILES comes first, the peptide text is derived from it. Bridges are numbered along the chain shown (N, C = ends). [ ]: non-standard residue; d: D form. The star is where a group is joined. ξ: configuration not given here. pTerphenylCO(4''-OnC5H11) = CCCCCOc1ccc(-c2ccc(-c3ccc(C(=O)*)cc3)cc2)cc1; ξOrn(4,5-diOH) = O=C(C(CC(O)C(O)N[*:3])N[*:1])[*:2]; ξhTyr(βξ-OH,γξ-OH) = NC(C(=O)O)C(O)C(O)c1ccc(O)cc1; ξPro(3ξ-OH,4ξ-Me) = CC1CNC(C(=O)O)C1O; Hyp = O=C(O)[CH]1C[CH](O)CN1

What was measured:
[1] = Stability of freeze-dried formulations, related substances by reverse phase HPLC, storage at 40° C.; type: physicochemical
Protocol: The stability of solution and freeze-dried formulations was evaluated by monitoring a sample of the formulation for the percent increase in related substances by reverse phase HPLC at initial, 2 weeks and 4 weeks of storage at 40° C.

[2] = Solubility studies of Com 6(a) in surfactant test solutions, reverse phase HPLC; type: physicochemical; settings: room temperature
Protocol: Solubility studies were performed at room temperature by transferring 5 ml of test solution (surfactant in water optionally containing a bulking agent, a buffer or a stabilizing agent) and 50 mg of Com 6(a) into a glass test tube. The test tubes were agitated overnight and examined for excess solid. Test tubes containing excess solid were removed for analysis. […] All samples were allowed to stand 1 h, supernatant was removed, filtered and analyzed by reverse phase HPLC to determine the potency of Com 6(a) per Ml of solution.

CCCCCOc1ccc(-c2ccc(-c3ccc(C(=O)NC4CC(O)C(O)NC(=O)C5C(O)C(C)CN5C(=O)C(C(C)O)NC(=O)C(C(O)C(O)c5ccc(O)cc5)NC(=O)C5CC(O)CN5C(=O)C(C(C)O)NC4=O)cc3)cc2)cc1 (stereo not drawn) [Compound 6(a)] ({pTerphenylCO(4''-OnC5H11)}-[ξOrn(4,5-diOH)]T[Hyp][ξhTyr(βξ-OH,γξ-OH)]T[ξPro(3ξ-OH,4ξ-Me)]; lactam 1-C; configuration not given here)
% Related Substances ([1]; 6(a) Potency 1, Poly 80(25), Cit(1.9), Man(50), 4 wks): 12.16% | % Related Substances ([1]; 6(a) Potency 1, Poly 80(25), Cit(9.6), Man(50), 0 wks): 3.36% | % Related Substances ([1]; 6(a) Potency 1, Poly 80(25), Cit(9.6), Man(50), 2 wks): 11.74% | % Related Substances ([1]; 6(a) Potency 1, Poly 80(25), Cit(9.6), Man(50), 4 wks): 18.63% | % Related Substances ([1]; 6(a) Potency 1, Poly 80(25), Cit(19.2), Man(50), 0 wks): 3.37% | % Related Substances ([1]; 6(a) Potency 1, Poly 80(25), Cit(19.2), Man(50), 2 wks): 17.29% | % Related Substances ([1]; 6(a) Potency 1, Poly 80(25), Cit(19.2), Man(50), 4 wks): 22.61% | % Related Substances ([1]; 6(a) Potency 5, Poly 80(12.5), no B, Lac(10), Man(50), 0 wks): 6.42% | % Related Substances ([1]; 6(a) Potency 5, Poly 80(12.5), no B, Lac(10), Man(50), 2 wks): 6.98% | % Related Substances ([1]; 6(a) Potency 5, Poly 80(12.5), no B, Lac(10), Man(50), 4 wks): 6.85% | % Related Substances ([1]; 6(a) Potency 8, Poly 80 (20), no B, Lac(10), Man(50), 0 wks): 5.99% | % Related Substances ([1]; 6(a) Potency 8, Poly 80 (20), no B, Lac(10), Man(50), 2 wks): 6.16% | % Related Substances ([1]; 6(a) Potency 8, Poly 80 (20), no B, Lac(10), Man(50), 4 wks): 5.74% | % Related Substances ([1]; 6(a) Potency 10, Poly 80(25), Cit(9.6), Suc(5), Man(50), 0 wks): 3.70% | % Related Substances ([1]; 6(a) Potency 10, Poly 80(25), Cit(9.6), Suc(5), Man(50), 2 wks): 5.60% | % Related Substances ([1]; 6(a) Potency 10, Poly 80(25), Cit(9.6), Suc(5), Man(50), 4 wks): 6.01% | % Related Substances ([1]; 6(a) Potency 10, Poly 80(25), Cit(9.6), Suc(10), Man(50), 0 wks): 3.77% | % Related Substances ([1]; 6(a) Potency 10, Poly 80(25), Cit(9.6), Suc(10), Man(50), 2 wks): 5.41% | % Related Substances ([1]; 6(a) Potency 10, Poly 80(25), Cit(9.6), Suc(10), Man(50), 4 wks): 5.88% | % Related Substances ([1]; 6(a) Potency 10, Poly 80(25), Cit(9.6), Suc(50), no BA, 0 wks): 3.60% | % Related Substances ([1]; 6(a) Potency 10, Poly 80(25), Cit(9.6), Suc(50), no BA, 2 wks): 5.4% | % Related Substances ([1]; 6(a) Potency 10, Poly 80(25), Cit(9.6), Suc(50), no BA, 4 wks): 6.01% | % Related Substances ([1]; 6(a) Potency 10, Poly 80(25), Cit(9.6), Tre(50), no BA, 0 wks): 3.73% | % Related Substances ([1]; 6(a) Potency 10, Poly 80(25), Cit(9.6), Tre(50), no BA, 2 wks): 4.83% | % Related Substances ([1]; 6(a) Potency 10, Poly 80(25), Cit(9.6), Tre(50), no BA, 4 wks): 6.19% | % Related Substances ([1]; 6(a) Potency 10, Poly 80(25), Tar(1.13), Fru(10), Man(50), 0 wks): 2.49% | % Related Substances ([1]; 6(a) Potency 10, Poly 80(25), Tar(1.13), Fru(10), Man(50), 4 wks): 2.42% | % Related Substances ([1]; 6(a) Potency 10, Poly 80(25), no B, Lac(10), Man(50) (first of two identical lines), 0 wks): 4.56% | % Related Substances ([1]; 6(a) Potency 10, Poly 80(25), no B, Lac(10), Man(50) (first of two identical lines), 2 wks): 4.51% | % Related Substances ([1]; 6(a) Potency 10, Poly 80(25), no B, Lac(10), Man(50) (first of two identical lines), 4 wks): 4.85% | % Related Substances ([1]; 6(a) Potency 10, Poly 80(25), no B, Lac(10), Man(50) (second of two identical lines), 0 wks): 4.06% | % Related Substances ([1]; 6(a) Potency 10, Poly 80(25), no B, Lac(10), Man(50) (second of two identical lines), 2 wks): 5.47% | % Related Substances ([1]; 6(a) Potency 10, Poly 80(25), no B, Lac(10), Man(50) (second of two identical lines), 4 wks): 5.17% | % Related Substances ([1]; 6(a) Potency 10, Poly 80(25), no B, PEG6000(10), Man(50), 0 wks): 4.13% | % Related Substances ([1]; 6(a) Potency 10, Poly 80(25), no B, PEG6000(10), Man(50), 2 wks): 4.47% | % Related Substances ([1]; 6(a) Potency 10, Poly 80(25), no B, PEG6000(10), Man(50), 4 wks): 8.11% | % Related Substances ([1]; 6(a) Potency 10, Poly 80(25), no B, PEG8000(10), Man(50), 0 wks): 3.97% | % Related Substances ([1]; 6(a) Potency 10, Poly 80(25), no B, PEG8000(10), Man(50), 2 wks): 4.23% | % Related Substances ([1]; 6(a) Potency 10, Poly 80(25), no B, PEG8000(10), Man(50), 4 wks): 6.73% | % Related Substances ([1]; 6(a) Potency 10, Poly 80(25), no B, Suc(10), Man(50), 0 wks): 4.26% | % Related Substances ([1]; 6(a) Potency 10, Poly 80(25), no B, Suc(10), Man(50), 2 wks): 4.82% | % Related Substances ([1]; 6(a) Potency 10, Poly 80(25), no B, Suc(10), Man(50), 4 wks): 4.49% | % Related Substances ([1]; 6(a) Potency 10, Poly 80(25), no B, no SA, Man(50), 0 wks): 3.98% | % Related Substances ([1]; 6(a) Potency 10, Poly 80(25), no B, no SA, Man(50), 2 wks): 4.85% | % Related Substances ([1]; 6(a) Potency 10, Poly 80(25), no B, no SA, Man(50), 4 wks): 5.45% | Comp6(a) Potency (solubility) ([2]; Poly 20 [5]/Poly 80 [5]): 4800 µg/mL | Comp6(a) Potency (solubility) ([2]; Poly 20 [5]/Poly 80 [10]): 8000 µg/mL | Comp6(a) Potency (solubility) ([2]; Poly 20 [5]/pluronic F68 [10]): 1130 µg/mL | Comp6(a) Potency (solubility) ([2]; Poly 80 [5]): 1000 µg/mL | Comp6(a) Potency (solubility) ([2]; Poly 80 [10]): 4400 µg/mL | Comp6(a) Potency (solubility) ([2]; Poly 80 [15]): 7200 µg/mL | Comp6(a) Potency (solubility) ([2]; Poly 80 [20]/sodium taurodeoxycholate [20]): 43120 µg/mL | Comp6(a) Potency (solubility) ([2]; Poly 80 [25]): 13200 µg/mL | Comp6(a) Potency (solubility) ([2]; Sur None): <100 µg/mL | Comp6(a) Potency (solubility) ([2]; ethoxylated castor oil (cremophor EL) [25]): 11000 µg/mL
